The text below walks through data of patent US10059674B2, “Design, synthesis, and biological evaluation of 1-methyl-1, 4-dihyrdoindeno[1,2-C]pyrazole analogues as potential anticaner agents targeting tubulin colchicine binding site” (ACT PHARMA CO., LTD., priority 2016, dated 2018).

As a reminder, the half-life is the time needed for the level to fall by half in the phase considered. A higher half-life goes with slow decline. Usually microsomal CLint stands for the rate of metabolic loss divided by the concentration. In general, pIC50 refers to −log10 of the IC50, conventionally taken in molar units.

pIC50: −log10 of the molar value. Read-outs that look alike come from different tables or passages of the source.

One series in a line: in vitro. Conditions: monkey, microsomes, pH 7.47.
The conditions of series [1]: rat, microsomes, 1 µM, pH 7.47.
The test system of series [2] is human prostate carcinoma (PC3) cells. As to the kind of experiment: Anti-proliferation test (MTT colorimetry). The following applies: PC-3, PC3, 72 h. The series is classed as cell-based. Here is the method: (§1) The compound of formula 1 (prepared in embodiment 1), and the compound of formula 2 (prepared in embodiment 2) are given at different concentrations to human hepatocellular carcinoma (HepG2) cells, human prostate carcinoma (PC3) cells, human cervical carcinoma (HeLa) cells, human breast adenocarcinoma (MCF-7) cells, and human leukemia (K562) cells; all the groups are incubated 72 h in an incubator containing 5% of CO2 at 37° C., and then inhabitation ratios of the compounds to the tumor cells are measured by using methyl thiazolyl tetrazolium (MTT) colorimetry, and results are shown in table 1.

The subject of series [3] is human hepatocellular carcinoma (HepG2) cells. Description: Anti-proliferation test (MTT colorimetry). The series is classed as cell-based. The following applies: HepG2, 72 h. Here is the method:
as §1

In series [4] the test system is human breast adenocarcinoma (MCF-7) cells. Description: Anti-proliferation test (MTT colorimetry). The series is classed as cell-based. The following applies: MCF7, MCF-7, 72 h. Here is the method:
as §1

The subject of series [5] is human cervical carcinoma (HeLa) cells. Description: Anti-proliferation test (MTT colorimetry). Conditions: 72 h. The series is classed as cell-based. Here is the method:
as §1

Series [6] has as its system human leukemia (K562) cells. Description: Anti-proliferation test (MTT colorimetry). The series is classed as cell-based. The following applies: K562, 72 h. Here is the method: as §1

The molecule `CCOc1cccc(Nc2nn(C)c3c2Cc2cc(OCC)c(OCC(N)=O)cc2-3)c1` [LL-01] displayed a half-life at 1 µM in the series “in vitro” of 21.6 min. In addition, the microsomal CLint at 1 µM in “in vitro” is 64.2 µL/min/mg. The Remainder in series [1] (0 h) is 100.00%; in series [1] (10 min), 87.70%; in series [1] (0.5 h), 68.13%; in series [1] (1.5 h) it was 33.19%. Besides, the pIC50 is 7.72 in series [2]; 7.59 in series [3]; 8.49 in series [4]; 8.13 in series [5]; 8.15 in series [6].
